MIC50 data for four compounds are collected here from ChEMBL document CHEMBL5226380, “O-Alkylazoxymycins A-F, Naturally Occurring Azoxy-Aromatic Compounds from Streptomyces sp. Py50” (2023).

Values after ≈ are worked out from the molar mass of the structure shown. Where a name gives a salt, the structure may show the parent alone.

The assay has as its system Epidermophyton floccosum. In words: Antifungal activity against Epidermophyton floccosum assessed as inhibition of fungal growth incubated for 24 hrs. The assay is classed as functional.
Take `O=C(O)CCCCCCc1ccccc1/[N+]([O-])=N/c1ccccc1CCCCC(=O)O`: the MIC50 (usually an inhibitory concentration at the 50% level, which refers to growth in some studies and to a panel of isolates in others) came to 10.1 µM (≈ 4.31 µg/mL).
Consider `O=C(O)CCCCCCc1ccccc1/N=[N+](\[O-])c1ccccc1CCCCC(=O)O`, for which the MIC50 stood at 23.1 µM (≈ 9.85 µg/mL).
Under `O=C(O)CCCCCCc1ccccc1/N=[N+](\[O-])c1ccccc1CCCCCCC(=O)O` stands 51.2 µM (≈ 23.3 µg/mL); under `CN(C/C=C/C#CC(C)(C)C)Cc1cccc2ccccc12` [TERBINAFINE HYDROCHLORIDE], 0.003 µM.
